Assay results published in patent US10717704B2, “Inhibitors of creatine transport and uses thereof” (Rgenix, Inc., priority 2014, dated 2020).

Tests used:
creatine transporter = target: T1, creatine transporter (Mus musculus, UniProt Q8VBW1); test: In vivo creatine transporter inhibition assay (creatine-d3 transport in heart tissue); set-up: species or system C57Bl6 male mice; details: i.p. 250 mg/kg β-GPA equivalent (1.91 mmol/kg), creatine-d3 1 mg/kg i.p. 7 minutes after drug, hearts after one hour, relative to vehicle control, mean of three hearts
T1 construct: from tissue; host or cells: heart of C57Bl6 male mice (in vivo dosing)
T1 sequence (Q8VBW1 1-635): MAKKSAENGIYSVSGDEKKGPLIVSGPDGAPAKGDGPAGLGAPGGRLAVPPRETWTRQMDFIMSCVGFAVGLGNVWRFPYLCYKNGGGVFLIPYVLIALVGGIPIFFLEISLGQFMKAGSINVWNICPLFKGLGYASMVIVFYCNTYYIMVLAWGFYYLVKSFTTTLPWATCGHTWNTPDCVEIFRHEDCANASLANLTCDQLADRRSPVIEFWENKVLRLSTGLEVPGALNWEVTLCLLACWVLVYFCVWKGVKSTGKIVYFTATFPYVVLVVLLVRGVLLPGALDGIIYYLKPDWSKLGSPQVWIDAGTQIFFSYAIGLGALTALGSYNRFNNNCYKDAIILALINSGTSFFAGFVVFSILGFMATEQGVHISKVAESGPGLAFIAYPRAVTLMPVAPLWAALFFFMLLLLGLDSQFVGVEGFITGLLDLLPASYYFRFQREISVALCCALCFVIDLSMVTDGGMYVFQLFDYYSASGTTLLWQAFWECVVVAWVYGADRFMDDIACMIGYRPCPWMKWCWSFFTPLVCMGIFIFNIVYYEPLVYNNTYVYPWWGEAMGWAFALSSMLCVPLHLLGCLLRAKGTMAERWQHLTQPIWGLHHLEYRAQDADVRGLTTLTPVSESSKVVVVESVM
Experimental: Soluble compounds were formulated in saline solution (0.9% NaCl). […] Studies were performed on 6-7 week old C57Bl6 male mice, receiving a regular diet (Purina 5001, Research Diet) and on a regular sleep rhythm (12 h night/day schedule). Experiments were performed ˜6 h after exposing to daylight. Mice were weighed and randomly divided into groups of 3 mice per group and injected i.p. with 100-200 μL of dosing solution to deliver 250 mg/kg (50 mg/mL or 381 mM) β-GPA equivalent (i.e. 1.91 mmol/kg) along with a vehicle control. […] Volumes were adjusted based on the weight of the mice to reach a final dose of 1 mg/kg. After one hour, mice were euthanized, hearts were perfused with PBS, removed, snap-frozen in liquid nitrogen, and stored at −80° C. until further processing. Mouse hearts were thawed and weighed into 1.5 mL Eppendorf conical tubes. Typical heart weights range from […]. […] The samples were then placed in a MiniBeadBeater (BioSpec Products, Inc.) for 2 minutes to disrupt the tissue and homogenize the sample. Aliqouts (20 μL) of the homogenized hearts were transferred to a 96-well microtiter plate. […] Supernatant (900 μL) was transferred to 96-well deep well plate for analysis. Calibration standards, blanks, and quality control samples are prepared from control mouse hearts homogenized as noted above. Aliquots of homogenate were then spiked with known quantities of creatine-d3 (CDN Isotopes, Pointe-Claire, Quebec) or solvent, and processed along with the samples as noted above. Analysis was conducted by LC-MS/MS using an Acquity UPLC (Waters Corp., Milford, Mass.)/Triple Quad 5500 (AB Sciex, Framingham, Mass.) system. […] A binary gradient of acetonitrile and 10 mM ammonium acetate was used to elute analytes from the column. The mass spectrometer was operated in positive ion electrospray in Multiple Reaction Monitoring mode for the following mass transitions: Data were collected and processed using Analyst 1.6.2 (AB Sciex, Framingham, Mass.). […] Data was report as μg of creatine-d3 per gram of heart. Mean values and standard deviations were calculated from three heart samples and percent creatine-d3 transport inhibition was reported relative to vehicle control.

CKB = CKB (Homo sapiens, UniProt P12277); details: read-out: ki (inhibitor of CKB); cited from earlier work
LvM3b cells = test: Liver metastasis assay, LvM3b colon cancer cells, drug treatment of mice; format: in vivo, NOD-SCID mice; details: for metastatic colonization (bioluminescent measurements of liver metastasis): 5×10^5 LvM3b cells, treated daily for two weeks, intra-peritoneal
Experimental: One day after inoculation of cancer cells, mice were injected indicated amounts of drug in 300 μL PBS. Treatment was continued daily and metastatic progression was monitored by bioluminescent imaging until the mice were euthanized at which point livers were excised for bioluminescent imaging and gross histology. Where indicated, cancer cells were pre-treated with indicated amounts of compound for 48 hrs before injection into immunodeficient mice. […] The treatment regime started one day after inoculation of tumor cells and continued until the mice were euthanized. […] Treatment regime were as that for cyclocreatine treatment. Finally, assays were carried out to determine the impact of small-molecule inhibition of CKB and restriction of creatine availability on colon cancer metastasis. Cyclocreatine, which resembles phosphocreatine, is a transition-state analog for creatine kinases. […] The mice were then euthanized and livers excised for ex vivo imaging at the end of the treatment. […] Similar assays were carried out using a creatine transporter inhibitor beta-guanidinopropionic acid (β-GPA). […] In this example, assays were carried out to confirm the therapeutic potential of targeting the creatine transporter channel SLC6a8 by administering the small molecule β-GPA, which is an inhibitor of SLC6a8. […] To confirm this therapeutic effect, mice injected with LvM3b colon cancer cells we treated with either β-GPA or control vehicle (PBS) via intra-peritoneal injection daily for three weeks (FIG. 2). The mice were euthanized at three weeks and liver extracted for bioluminescent imaging and gross histology.

[1] = tested on: LvM3b cells with CKB knockdown; test: Liver metastasis of CKB knockdown LvM3b cells pre-treated with metabolite; format: in vivo, mice
Experimental: 5×10^5 highly metastatic cancer cells were injected into the portal circulation of immunodeficient mice. One day after inoculation of cancer cells, mice were injected indicated amounts of drug in 300 μL PBS. Treatment was continued daily and metastatic progression was monitored by bioluminescent imaging until the mice were euthanized at which point livers were excised for bioluminescent imaging and gross histology. Where indicated, cancer cells were pre-treated with indicated amounts of compound for 48 hrs before injection into immunodeficient mice.
CKB is known to regulate the reservoir of rapidly mobilized high-energy phosphates in tissues such as the brain and kidneys by catalyzing the transfer of a high-energy phosphate group from phosphocreatine to ADP, yielding ATP and creatine. It was hypothesized that CKB generation of ATP from phosphocreatine might provide colon cancer cells with an energetic advantage during hepatic colonization. […] Metastatic burden was monitored by bioluminescent imaging and mice euthanized 21 days after injection.
Similar studies were done to determine whether creatine and phosphocreatine could rescue the phenotype of seen upon CKB knock-down. […] Liver metastasis was monitored by bioluminescent imaging and mice were euthanized as described above.

[2] = tested on: PANC1 pancreatic cancer cells; test: Survival of disseminated PANC1 cells in vivo after β-GPA pre-treatment; set-up: species or system immunodeficient mice
Experimental: One day after inoculation of cancer cells, mice were injected indicated amounts of drug in 300 μL PBS. Treatment was continued daily and metastatic progression was monitored by bioluminescent imaging until the mice were euthanized at which point livers were excised for bioluminescent imaging and gross histology. Where indicated, cancer cells were pre-treated with indicated amounts of compound for 48 hrs before injection into immunodeficient mice.

Sequence of CKB (P12277 whole entry): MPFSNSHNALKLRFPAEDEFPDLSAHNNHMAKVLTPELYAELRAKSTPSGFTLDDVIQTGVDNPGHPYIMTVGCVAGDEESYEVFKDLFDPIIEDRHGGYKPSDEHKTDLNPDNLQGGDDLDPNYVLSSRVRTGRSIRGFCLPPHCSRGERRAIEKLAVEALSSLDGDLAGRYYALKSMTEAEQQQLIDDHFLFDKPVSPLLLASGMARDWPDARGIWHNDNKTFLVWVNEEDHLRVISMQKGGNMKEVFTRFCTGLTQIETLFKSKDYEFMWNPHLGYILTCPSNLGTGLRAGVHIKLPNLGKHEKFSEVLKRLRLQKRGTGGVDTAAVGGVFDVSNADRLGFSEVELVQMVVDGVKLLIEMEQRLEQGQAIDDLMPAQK

N=C(N)N1CC(C(=O)O)C1 [Compound 258, 1-carbamimidoylazetidine-3-carboxylic acid]
% Inhibition of Creatine-d3 Transport (creatine transporter): 71.8%

N=C(N)N1CCC(C(=O)O)C1 (centres unmarked) [Compound 376, 1-carbamimidoylpyrrolidine-3-carboxylic acid]
% Inhibition of Creatine-d3 Transport (creatine transporter): 39.1%

NC1=NCCN1CC(=O)O [cyclocreatine]
Ki (CKB): 5 mM
metastatic colonization (bioluminescent measurements of liver metastasis) (LvM3b cells): significantly reduced metastatic colonization

CCC(CC(=O)O)NC(=N)N (centres unmarked) [Compound 358, 3-carbamimidamidopentanoic acid]
% Inhibition of Creatine-d3 Transport (creatine transporter): 11.1%

N=C(N)NC[C@H](N)C(=O)O [Compound 125, (2S)-2-amino-3-carbamimidamidopropanoic acid]
% Inhibition of Creatine-d3 Transport (creatine transporter): 4.5%

N=C(N)NC(CC(=O)O)C(F)(F)F (centres unmarked) [Compound 261, 3-guanidino-4,4,4-trifluorobutanoic acid]
% Inhibition of Creatine-d3 Transport (creatine transporter): 24.7%

C[C@H](CC(=O)O)NC(=N)N [Compound 219, (3R)-3-carbamimidamidobutanoic acid]
% Inhibition of Creatine-d3 Transport (creatine transporter): 79.0%

C[C@@H](CC(=O)O)NC(=N)N [Compound 220, (3S)-3-carbamimidamidobutanoic acid]
% Inhibition of Creatine-d3 Transport (creatine transporter): 1.4%

N=C(N)NCCC(=O)O [28 (β-GPA)]
inhibition at 250 mg/kg (creatine transporter; mouse, ip): 73.4%

Nc1ncnc2c1ncn2[C@@H]1O[C@H](COP(=O)(O)OP(=O)(O)OP(=O)(O)O)[C@@H](O)[C@H]1O [ATP]
enhancement of suppressed metastasis phenotype in cells depleted of CKB ([1]; LvM3b with CKB knockdown pre-treated with 100 uM ATP, 21 days): more than 10 folds

N=C(N)NCCC(=O)O [β-GPA, beta-guanidinopropionic acid]
metastatic colonization (bioluminescent measurements of liver metastasis) (LvM3b cells): significantly reduced metastatic colonization
colon cancer metastasis to the liver (LvM3b cells; LvM3b cells, daily treatment for three weeks, bioluminescent imaging and gross anatomical examination): significant reduction in colon cancer metastasis to the liver
average photon flux ratio (bioluminescence imaging) (LvM3b cells; LvM3b cells, β-GPA intra-peritoneal daily for three weeks, control group about 800): ~100
average photon flux ratio (bioluminescence imaging) ([2]; 5×10^5 PANC1 cells pre-treated 48 hours with 10 mM, day 1 signal normalized to day zero, control group about 2.7): ~1.6
tumor burden of pancreatic cancer cells in vivo ([2]; PANC1 cells pre-treated 48 hours with 10 mM, one day after injection): significant reduction in the tumor burden

CN(CC(=O)O)C(=N)N [creatine]
rescue of metastasis suppression upon CKB knockdown ([1]; LvM3b cells with CKB knockdown pre-treated with 10 uM, day 21): rescued metastasis suppression
